Ends that are not written are not given here.
What was measured:
[1] = system: Human-derived Periodontal Ligament Cells (PDL Cells); test: Cell growth of PDL cells (cell number by Coulter counter); type: cell-based; details: peptide added at various concentrations to DMEM containing 2% FBS; counted on Days 4 and 6; versus control medium (FIG. 1, FIG. 2)
Source text: PDL cells were isolated from a healthy premolar carefully extracted from a patient who visited a hospital to extract teeth for orthodontic treatment so that periodontal ligament should not be damaged as far as possible, and cultured. The extracted tooth was washed with sterilized physiological saline and phosphate-buffered saline (PBS, Nissui), and then periodontal ligament existing in ⅓ of the tooth root at the center was scraped off with a sharp knife. The pieces of periodontal ligament were transferred to a plastic plate and minced into small fragments using a round-blade knife. Tissue fragments were left standing in a plate having a diameter of 35 mm (FALCON) and cultured in Dulbecco's modified Eagle medium (DMEM, Nissui) containing antibiotics (100 U/ml of penicillin G, 100 μg/ml of streptomycin and 250 μg/ml of gentamicin) and 10% fetal bovine serum (FBS, EQUITECH-BIO) at 37° C. under 5% CO2. […]
The PDL cells prepared in (1) were inoculated on a 24-well culture plate (FALCON) at a ratio of 5×10^3 cells/well. […] On Days 4 and 6, the cells were separated and dispersed by using PBS containing 0.08% trypsin and 0.04% ethylenediaminetetraacetic acid (EDTA), and cell number was counted by using a Coulter counter (COULTER Z1, Coulter Electronics). […]

PDL cells [2] = test: Cell differentiation of PDL cells (alkaline phosphatase activity, Bessey-Lowry method); type: cell-based, human; details: peptide at various concentrations, 2% FBS medium; one week after confluent state; versus control (FIG. 4)
Source text: PDL cells were isolated from a healthy premolar carefully extracted from a patient who visited a hospital to extract teeth for orthodontic treatment so that periodontal ligament should not be damaged as far as possible, and cultured. The extracted tooth was washed with sterilized physiological saline and phosphate-buffered saline (PBS, Nissui), and then periodontal ligament existing in ⅓ of the tooth root at the center was scraped off with a sharp knife. The pieces of periodontal ligament were transferred to a plastic plate and minced into small fragments using a round-blade knife. Tissue fragments were left standing in a plate having a diameter of 35 mm (FALCON) and cultured in Dulbecco's modified Eagle medium (DMEM, Nissui) containing antibiotics (100 U/ml of penicillin G, 100 μg/ml of streptomycin and 250 μg/ml of gentamicin) and 10% fetal bovine serum (FBS, EQUITECH-BIO) at 37° C. under 5% CO2. Then, cells released from the periodontal ligament tissue fragments were subcultured under the same conditions, and the 3rd to 5th generation cells were used for experiments. • (ii) Mouse-derived Osteoblasts
As an index of cell differentiation, alkaline phosphatase (ALP) activity of cells was determined. Cells were inoculated in a 24-well culture plate at a ratio of 5×10^3 cells/well, added with the peptide (a) at various concentrations and cultured in DMEM or αMEM containing 2% FBS. One week after the time point when the cells reached a confluent state, ALP activity was determined by the following enzymochemical method (Bessey-Lowry method, Bessey O A, Lowry O H and Brock M J, A method for the rapid determination of alkaline phosphatase with five cubic millimeter of serum, J. Biol. Chem., 164:321-329, 1946).
The cultured cells were washed with PBS and then disrupted in 10 mM Tris-HCl buffer (pH 7.4, 500 μl) for 40 seconds by using an ultrasonic homogenizer (Handy Sonic model UR-20P, Tomy Seiko) and stirred. Then, 25 μl of this sample liquid was added to 125 μl of ALP buffer (0.1 M carbonate buffer, pH 9.8, 6.7 mM p-nitrophenyl phosphate, 2 mM MgCl2) and incubated at 37° C. for 30 minutes. The reaction was terminated by addition of 125 μl of 0.2 N NaOH, and absorbance was measured at 405 nm by using a microplate reader (Model 550, Bio-Rad Laboratories).
Further, the ALP activity in DMEM containing 2% FBS and DMEM or αMEM containing 2% FBS added with peptide (c) at various concentrations was also similarly examined. The symbol “cont” in FIG. 4 indicates the results for the cells cultured in DMEM containing 2% FBS alone, “PN” indicates the results for the cells cultured in the medium added only with the peptide (a), and “PC” indicates the results for the cells cultured in the medium added only with the peptide (c). In FIG. 4, “pg” and “ng” represent “pg/ml” and “ng/ml,” respectively.
Further, in addition to the peptide (a) (derived from swine), the human-derived peptide (b) and BMP were similarly examined. The results of ALP activity measurement performed when the cells reached a confluent state are shown in FIG. 5, and the results of ALP activity measurement performed one week after the confluent state was attained are shown in FIG. 6. The symbol “cont” in the figures indicates the results for the cells cultured in DMEM containing 2% FBS alone, “B” indicates the results for the cells cultured in the medium added only with BMP2, “PN” indicates the results for the cells cultured in the medium added only with the peptide (a), and “HN” indicates the results for the cells cultured in the medium added only with the peptide (b) In the figures, the unit of numerical values shown after “B,” “PN” and “HN” is “ng/ml.”

PDL cells [3] = test: Calcification product forming ability of PDL cells (Dahl's calcium staining, alizarin red S); type: cell-based, human; details: peptide at various concentrations, 10 mM sodium β-glycerophosphate, three weeks after confluent state
Protocol: The following experiment was performed to examine effect of the peptide on calcification product forming ability of cells.
To assess calcification ability of cells, Dahl's calcium staining was performed. The PDL cells were inoculated on a 24-well culture plate at a ratio of 5×10^3 cells/well, and cultured in 2S-containing DMEM added with the peptide (a) or (c) at various concentrations and adjusted by addition of 10 mM sodium β-glycerophosphate. Three weeks after the cells reached a confluent state, the cells were washed with PBS, fixed with neutrally buffered formalin and stained with alizarin red S (Wako Pure Chemical Industries).

NKAQQPQIKRDAWRF [(c)]
significantly increased: PDL cell number (cell growth promoting effect) [1] | ALP activity of the PDL cells (PDL cells [2]) | calcification ability of the PDL cells (PDL cells [3])

Reference: US7678884B2, “Biologically active peptide and agent containing the same” (Seikagaku Corporation, priority 2003, dated 2010)
